Test results from patent US20210317113A1, “1,2,3-TRIAZOLE DERIVATIVES AND USES THEREOF” (Alxerion Biotech LLC, priority 2020, published 2021).

Columns and labels:
[1] = tested on: Non-Small Lung Cancer Cells (NSLCs); assay: Cancer migration (wound healing) assay; type: cell-based; settings: wound healing assay, dose-response curve; read-out: Anti-Cancer Activity (Inhibition of Cancer Cell Migration) IC50
Source text: The ability of 1,2,3-triazole derivatives according to the disclosure to inhibit cancer cell migration and proliferation in vitro can be measured, e.g., by a wound healing assay (Rodriguez et al., in Cell Migration: Developmental Methods and Protocols, Web et al., Guan ed. Humana Press 294, 23-29). This assay is based on the observation that, upon the creation of an artificial gap on a confluent cancer cell monolayer, the cells on the edge of the created gap will start migrating and proliferating until new cell-cell contacts are established (EXAMPLE 3).
Non-Small Lung Cancer Cells (NSLCs) migration rate was assessed in an in vitro wound healing assay. This assay is based on the observation that, upon the creation of an artificial gap on a confluent cell monolayer, the cells on the edge of the created gap will start migrating and proliferating until new cell-cell contacts are established.
A confluent cell layer is a prerequisite for starting this assay. Gap formation is done manually with a scrapper and cell proliferation and migration is determined recording a time-lapse video for 20 hr. with a time interval of 30 min. The microscopic pictures are manually analyzed for obtaining information about the proliferation and migration characteristics of the cultured cells and the image analysis detects the cell covered area.
NSLCs were cultured in Eagle's Minimum Essential Medium (ATCC-formulated medium, Catalog No. 30-2003) containing fetal bovine serum at 10% during several periods. Wound healing assays with supplemented medium containing 1,2,3-triazole derivatives were performed to evaluate the inhibitory effect on proliferation and migration of cancer cells.
In order to simulate as close as possible the in vivo cancer microenvironment, human plasma and calcium were added to the cell culture system to provide the hemostatic factors normally present in the cancer stroma. The previous day, cells were seeded with 10% FBS at a number that would provide 90% confluence the next day. On Day 0, a scratch (“a wound”) was performed in the middle of the well and the 10% FBS medium was replaced with 20% plasma, 20 mM calcium medium, with or without Derivative 1. 10% FBS medium was used as control in these experiments. “Wound healing” or closure of the scratch was assessed over a period of 4 days, and cell number in the wound area was quantified for each condition. Increasing amount of Derivative 1 (LTI6) was used to attain a dose-response curve.
The cell function effect of Derivative 1 was compared with Tranexamic Acid (TNA) and Caproic Acid (CA), commercially available and widely used anti-metastasis drugs.

[2] = tested on: fibrinolysis mediated by tPA (plasminogen activation by tPA); assay: Fibrinolytic assay: one-step spectrophotometric clot lysis in human plasma; type: biochemical; settings: concentration at which 50% of total fibrinolysis mediated by tPA is inhibited; human ACD plasma, clot triggered by TF, absorbance 340 nm; read-out: Anti-fibrinolytic (SERPIN) Activity IC50
Protocol: Fibrinolytic activity in human plasma was determined by a one-step spectrophotometric method (Gidron et al. (1978) J. Clin. Pathol. 31(1):54-57) with minor modifications (see EXAMPLE 2). In this method, fibrin clot formation in anticoagulant citrate dextrose (ACD) plasma samples obtained from healthy volunteers is triggered by tissue factor (TF) and can be quantified by spectrometry as a significant increase in basal plasma absorbance at 340 nm.
As shown in FIGS. 2A-2D, in the absence of tPA, plasma absorbance remains permanently elevated.
Fibrinolytic activity in human plasmas in the presence of derivatives according to the disclosure was determined by a one-step spectrophotometric method.
Fibrin clot formation in the anticoagulant acid citrate dextrose (ACD)-treated plasma obtained from healthy volunteers is triggered by tissue factor (TF) (Thromborel S, Siemens Healthineers) and quantifies by spectrophotometry at 340 nm (using a Molecular Devices SpectraMax® M2e Multimode Microplate Reader). When recombinant human Tissue Plasminogen Activator (tPA, final concentration of 5.2 μg/ml) is simultaneously added, fibrinolysis of the clot can be determined.
Fresh blood was extracted from healthy volunteers. ACD, to reach a 10% concentration, was instantly added to the extracted blood, to prevent any unwanted coagulation. After that, blood was centrifuged for 15 min at 1,000 g. Plasma was clearly separated from red blood cells. 3 mL aliquots of aspirated plasma were immediately frozen at −20° C.
4 mL of ddH2O was added to a vial of Thromborel S and mixed thoroughly for 2 min. and left at 4° C. 500 μL TF aliquots were used for each experiment.
Representative derivatives of the present disclosure (Nos. 1, 5, and 7) were diluted in DMSO (those with Boc) or ddH2O (those with HCl) to a final concentration of 10 mM. A solution containing 1 M Tris HCl, pH 7.5 (Fisher BioReagent) (Buffer A), 0.110 g of CaCl2) in 10 mL of ddH2O (Buffer B), and tPA (Abcam, 1.3 mg/mL added into the diluted derivative solution, final concentration in serum was 5.2 μg/mL), and the derivative was prepared in a total volume of 75 μL and added to untreated, flat, clear Costar® 96-well plates in triplicate. Absorbance at 340 nm at 37° C. for 30 min was recorded every 15 sec. The plates were shaken every 3 sec in between readings. Controls for basal plasma absorbance, basal coagulation absorbance and basal fibrinolytic activity absorbance were performed in every assay.
FIG. 2A show the results a control experiment displaying the ability of TF to cause fibrin clot formation in the absence and presence of t-PA. TF was able to cause fibrin clot formation evaluated as a significant increase of the basal plasma absorbance at 340 nm.

[3] = tested on: Non-Small Lung Cancer Cells (NSLCs); assay: Trypan Blue Exclusion Test of cancer cell viability; type: cell-based; settings: defined in text as concentration of derivative causing greater than 90% of the cells to die; read-out: Anti-Cancer Activity (Trypan Blue Exclusion Assay) IC50
Protocol: The ability of 1,2,3-triazole derivatives according to the disclosure to kill cancer cells can be measured, e.g., by Trypan Blue Exclusion Assay which measured cell death by starvation due to the presence of the derivative (see EXAMPLE 4). The results obtained using this assay with some representative 1,2,3-triazole derivatives according to the disclosure are shown below in Table 4.
The effect of Derivative 1 on cancer cell viability was determined using the Trypan Blue Exclusion Test (Stober (2001) (Curr. Protoc. Immunol., May; Appendix 3:Appendix 3B. doi: 10.1002/0471142735.ima03bs21). The viability of Non-Small Lung Cancer Cells (NSLCs) was assessed over a period of 15 days after the promotion of coagulation with or without 200 μM of 1,2,3-triazole derivative 1 and with or without 2% human plasma. Fresh 2% FBS medium corresponding to each condition was added every 3 days. Cell death was analyzed using Trypan blue staining. 2% FBS medium was used as control. Some representative results are shown in FIGS. 4A-4F.

Row | IC50 [1] | IC50 [2] | IC50 [3] | SMILES
1 | 69 µM | 23 µM | 140 µM | NCCn1cc(C/C(N)=N\O)nn1 [Derivative 28]
2 | 420 µM | 205 µM | 610 µM | N/C(=N\O)c1cn(C2CCC(N)CC2)nn1 (stereo not drawn) [Derivative 25]
3 | 620 µM | 315 µM | 810 µM | NCCn1cc(-c2nnc(C(=O)O)o2)nn1 [Derivative 24]
4 | 310 µM | 189 µM | 480 µM | N/C(Cc1cn(C2CCC(N)CC2)nn1)=N/O (stereo not drawn) [Derivative 27]
5 | 250 µM | 58 µM | 430 µM | NNC(=O)c1cn(C2CCC(N)CC2)nn1 (stereo not drawn) [Derivative 16]
6 | 100 µM | 35 µM | 150 µM | O=C(O)c1nnc(-c2cn(C3CCNCC3)nn2)o1 [Derivative 21]
7 | 65 µM | 25 µM | 110 µM | O=c1[nH]nc(-c2cn(C3CCNCC3)nn2)o1 [compound 12, 5-(1-(piperidin-4-yl)-1H-1,2,3-triazol-4-yl)-1,3,4-oxadiazol-2(3H)-one]
